For data set [1], the system named is Outer membrane porin F (Pseudomonas aeruginosa (strain ATCC 15692 / DSM 22644 / CIP 104116 / JCM14847 / LMG 12228 / 1C / PRS 101 / PAO1)), P13794 [UNDEFINED MUTATION]. Put plainly: Binding affinity to OprF mutant in Pseudomonas aeruginosa H636 at 10 uM incubated for 1 hr by ELISA. Background: ELISA stands for enzyme-linked immunosorbent assay.
The subject of data set [2] is Candida albicans. Put plainly: Binding affinity to cell surface of Candida albicans ATCC 10231 at 10 uM incubated for 1 hr by ELISA. It is filed as organism-based.
For data set [3], the system named is Escherichia coli. Put plainly: Binding affinity to cell surface of Escherichia coli KCTC 2223 at 10 uM incubated for 1 hr by ELISA. The data set is classed as organism-based.
For data set [4], the system named is Salmonella typhimurium. Put plainly: Binding affinity to cell surface of Salmonella typhimurium KCTC 2370 at 10 uM incubated for 1 hr by ELISA. It is filed as organism-based. To be noted: Salmonella enterica subsp. enterica serovar Typhimurium.
Data set [5] addresses T1, Outer membrane porin F (Pseudomonas aeruginosa (strain ATCC 15692 / DSM 22644 / CIP 104116 / JCM14847 / LMG 12228 / 1C / PRS 101 / PAO1)) (UniProt P13794).
T1 sequence (whole entry): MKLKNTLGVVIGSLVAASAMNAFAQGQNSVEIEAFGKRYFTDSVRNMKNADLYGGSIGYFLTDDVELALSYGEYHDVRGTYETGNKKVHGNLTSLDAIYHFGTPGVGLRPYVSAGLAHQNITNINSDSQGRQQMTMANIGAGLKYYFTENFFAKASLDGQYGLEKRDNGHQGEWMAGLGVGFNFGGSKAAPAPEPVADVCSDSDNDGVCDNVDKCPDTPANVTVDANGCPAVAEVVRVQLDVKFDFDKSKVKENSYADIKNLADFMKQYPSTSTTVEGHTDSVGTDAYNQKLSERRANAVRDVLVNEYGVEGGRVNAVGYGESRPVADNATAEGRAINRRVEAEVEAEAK
The experiment in a line: Binding affinity to OprF in Pseudomonas aeruginosa H103 at 10 uM incubated for 1 hr by ELISA.

The test system of data set [6] is Staphylococcus aureus. Put plainly: Binding affinity to cell surface of Staphylococcus aureus ATCC 15752 at 10 uM incubated for 1 hr by ELISA. The data set is classed as organism-based.
Data set [7] deals with Pseudomonas aeruginosa. The experiment in a line: Binding affinity to cell surface of Pseudomonas aeruginosa H103 at 10 uM incubated for 1 hr by ELISA. It is filed as organism-based.
Data set [8] addresses T1, Outer membrane porin F (Pseudomonas aeruginosa (strain ATCC 15692 / DSM 22644 / CIP 104116 / JCM14847 / LMG 12228 / 1C / PRS 101 / PAO1)). Put plainly: Binding affinity to recombinant Pseudomonas aeruginosa OprF expressed in Escherichia coli BL21 (DE3) at 10 uM incubated for 1 hr by ELISA.
For data set [9], the system named is Pseudomonas aeruginosa. Put plainly: Antibacterial activity against multidrug resistant Pseudomonas aeruginosa H103 infected in BALB/c mouse infected assessed as survival rate at 25 mg/kg, ip measured on day 7. It is filed as functional. Conditions: 168 h.
The test system of data set [10] is Pseudomonas aeruginosa. Put plainly: Antibacterial activity against multidrug resistant Pseudomonas aeruginosa H103 infected in BALB/c mouse infected assessed as survival rate at 15 mg/kg, ip measured on day 7. The data set is classed as functional. To be noted: 168 h.
Data set [11] concerns Salmonella typhimurium. Put plainly: Antibacterial activity against Salmonella typhimurium KCTC 2370 assessed as reduction in bacterial cell growth preincubated for 3 hrs followed by medium replenishment further incubated for 18 hrs by serial microdilution method. To be noted: Salmonella enterica. The data set is classed as functional, Salmonella enterica subsp. enterica serovar Typhimurium.

The subject of data set [12] is Escherichia coli. The experiment in a line: Antibacterial activity against Escherichia coli KCTC 2223 assessed as reduction in bacterial cell growth preincubated for 3 hrs followed by medium replenishment further incubated for 18 hrs by serial microdilution method. It is filed as functional. (In general: In broth dilution the organism is exposed to a series of concentrations in liquid medium.)

Data set [13] concerns Outer membrane porin F (Pseudomonas aeruginosa (strain ATCC 15692 / DSM 22644 / CIP 104116 / JCM14847 / LMG 12228 / 1C / PRS 101 / PAO1)), P13794 [UNDEFINED MUTATION]. The experiment in a line: Binding affinity to OprF mutant in Pseudomonas aeruginosa H636 at 1 uM incubated for 5 mins by confocal laser scanning microscopy.
The subject of data set [14] is Pseudomonas aeruginosa. Put plainly: Antibacterial activity against Pseudomonas aeruginosa assessed as reduction in bacterial cell growth preincubated for 3 hrs followed by medium replenishment further incubated for 18 hrs by serial microdilution method. It is filed as functional.
The target in data set [15] is T1, Outer membrane porin F (Pseudomonas aeruginosa (strain ATCC 15692 / DSM 22644 / CIP 104116 / JCM14847 / LMG 12228 / 1C / PRS 101 / PAO1)). The experiment in a line: Binding affinity to OprF in Pseudomonas aeruginosa H103 assessed as binding affinity to bacterial cell surface at 1 uM incubated for 5 mins by confocal laser scanning microscopy.
Data set [16] has as its system Escherichia coli. Put plainly: Binding affinity to cell surface of Escherichia coli KCTC 2223 at 1 uM incubated for 5 mins by confocal laser scanning microscopy. The data set is classed as organism-based.
In data set [17] the test system is Candida albicans. Put plainly: Antifungal activity against Candida albicans ATCC 10231 assessed as reduction in fungal cell growth preincubated for 3 hrs followed by medium replenishment further incubated for 18 hrs by serial microdilution method. It is filed as functional.
Data set [18] deals with Salmonella typhimurium. The experiment in a line: Binding affinity to cell surface of Salmonella typhimurium KCTC 2370 at 1 uM incubated for 5 mins by confocal laser scanning microscopy. The data set is classed as organism-based. Conditions: Salmonella enterica subsp. enterica serovar Typhimurium.
Data set [19] has as its system Staphylococcus aureus. Put plainly: Antibacterial activity against Staphylococcus aureus ATCC 15752 assessed as reduction in bacterial cell growth preincubated for 3 hrs followed by medium replenishment further incubated for 18 hrs by serial microdilution method. The data set is classed as functional.
Data set [20] has as its system Escherichia coli. Put plainly: Antibacterial activity against Escherichia coli KCTC 2223 assessed as reduction in bacterial cell growth in presence of GNU7 preincubated for 3 hrs followed by medium replenishment further incubated for 18 hrs by serial microdilution method. The data set is classed as functional.
In data set [21] the target is T1, Outer membrane porin F (Pseudomonas aeruginosa (strain ATCC 15692 / DSM 22644 / CIP 104116 / JCM14847 / LMG 12228 / 1C / PRS 101 / PAO1)). Put plainly: Binding affinity to OprF in Pseudomonas aeruginosa H103 assessed as binding affinity to bacterial cell surface at 10 uM incubated for 1 hr by ELISA.
The subject of data set [22] is Salmonella typhimurium. The experiment in a line: Antibacterial activity against Salmonella typhimurium KCTC 2370 assessed as reduction in bacterial cell growth in presence of GNU7 preincubated for 3 hrs followed by medium replenishment further incubated for 18 hrs by serial microdilution method. The data set is classed as functional, Salmonella enterica subsp. enterica serovar Typhimurium. Conditions: Salmonella enterica.

Data set [23] deals with Staphylococcus aureus. The experiment in a line: Antibacterial activity against Staphylococcus aureus ATCC 15752 assessed as reduction in bacterial cell growth in presence of GNU7 preincubated for 3 hrs followed by medium replenishment further incubated for 18 hrs by serial microdilution method. The data set is classed as functional.
For data set [24], the system named is Candida albicans. The experiment in a line: Antifungal activity against Candida albicans ATCC 10231 assessed as reduction in fungal cell growth in presence of GNU7 preincubated for 3 hrs followed by medium replenishment further incubated for 18 hrs by serial microdilution method. It is filed as functional.
The test system of data set [25] is Pseudomonas aeruginosa. The experiment in a line: Antibacterial activity against Pseudomonas aeruginosa assessed as reduction in bacterial cell growth in presence of GNU7 preincubated for 3 hrs followed by medium replenishment further incubated for 18 hrs by serial microdilution method. The data set is classed as functional.
In data set [26] the test system is Pseudomonas aeruginosa. Put plainly: Antibacterial activity against Pseudomonas aeruginosa H103 co-cultured with Salmonella typhimurium KCTC 2370 assessed as reduction in bacterial load by measuring decrease in colony forming units at 2 uM incubated for 30 mins by time-kill assay. The data set is classed as functional.
In data set [27] the test system is Mus musculus. Put plainly: In vivo antibacterial activity against multidrug resistant Pseudomonas aeruginosa H103 infected in BALB/c mouse assessed as reduction in bacterial load by measuring decrease in colony forming units in spleen at 25 mg/kg, ip measured after 12 hrs. It is filed as functional.
The test system of another data set is Erythrocyte. The experiment in a line: Hemolytic activity in human RBC incubated for 30 mins. The data set is classed as ADME, cell-based. Conditions: 0.5 h.
In data set [28] the test system is Escherichia coli. Put plainly: Antibacterial activity against Escherichia coli KCTC 2223 co-cultured with Pseudomonas aeruginosa H103 assessed as reduction in bacterial load by measuring decrease in colony forming units at 2 uM incubated for 30 mins by time-kill assay. It is filed as functional.
Data set [29] relates to Mus musculus. Put plainly: In vivo antibacterial activity against multidrug resistant Pseudomonas aeruginosa H103 infected in BALB/c mouse assessed as reduction in bacterial load by measuring decrease in colony forming units in liver at 25 mg/kg, ip measured after 12 hrs. It is filed as functional.
Data set [30] concerns Salmonella typhimurium. Put plainly: Antibacterial activity against Salmonella typhimurium KCTC 2370 co-cultured with Pseudomonas aeruginosa H103 assessed as reduction in bacterial load by measuring decrease in colony forming units at 2 uM incubated for 30 mins by time-kill assay. Conditions: Salmonella enterica subsp. enterica serovar Typhimurium. The data set is classed as functional, organism-based.

The test system of data set [31] is Mus musculus. The experiment in a line: In vivo antibacterial activity against multidrug resistant Pseudomonas aeruginosa H103 infected in BALB/c mouse assessed as reduction in bacterial load by measuring decrease in colony forming units in kidney at 25 mg/kg, ip measured after 12 hrs. It is filed as functional.
Data set [32] relates to Pseudomonas aeruginosa. The experiment in a line: Antibacterial activity against Pseudomonas aeruginosa H103 co-cultured with Escherichia coli KCTC 2223 assessed as reduction in bacterial load by measuring decrease in colony forming units at 2 uM incubated for 30 mins by time-kill assay. It is filed as functional.

Active and inactive are the calls of the source. The rule behind the calls is not given here. Peptide text beside a SMILES is read from it. Where only a bound is given, the exact number is not on record here.

One may read the MIC as the least concentration at which growth counts as inhibited.

Turning to `CC(C)C[C@H](NC(=O)[C@H](CO)NC(=O)[C@H](CO)NC(=O)[C@H](CS)NC(=O)[C@@H](N)CO)C(=O)N[C@H](C(=O)N[C@H](C(=O)N[C@@H](CC(C)C)C(=O)N[C@@H](CCCNC(=N)N)C(=O)N1CCC[C@H]1C(=O)N[C@@H](CS)C(=O)NCC(=O)O)[C@@H](C)O)[C@@H](C)O` (H-SCSSLTTLRPCG-OH), the result (in data set [1]; in the data set on Candida albicans [2]; in the data set on Escherichia coli [3]; in the data set on Salmonella typhimurium [4]; in data set [5]; with Staphylococcus aureus [6]) was Active. Further, the result in the data set on Pseudomonas aeruginosa [7] was Active. In addition, the result in [8] was inactive.

For the compound `C[C@@H](O)[C@H]1C(=O)N2C(C(=O)O)=C(S[C@@H]3CN[C@H](C(=O)N(C)C)C3)[C@H](C)[C@H]12` [MEROPENEM], the survival at 25 mg/kg in the data set on Pseudomonas aeruginosa [9] was determined as 25%.

Consider H-RLLRPLLQLLKQKLR-OH, for which the survival at 15 mg/kg in the data set on Pseudomonas aeruginosa [10] came to 62.5%. Further, the minimal inhibitory concentration (MIC) with Salmonella typhimurium [11] was determined as 16 µM; with Escherichia coli [12], 8 µM; in the data set on Pseudomonas aeruginosa [14], 32 µM; with Candida albicans [17] it was 16 µM; with Staphylococcus aureus [19] it was 4 µM. In addition, the result (in data set [13]; in data set [15]; in the data set with Escherichia coli [16]; in the data set with Salmonella typhimurium [18]) was inactive.

With H-SQRKLAAKLTSK-OH, the result (in [1]; in the data set on Candida albicans [2]; in the data set on Escherichia coli [3]; in data set [13]; in the data set on Salmonella typhimurium [4]; in the data set on Escherichia coli [16]) was inactive. The result in the data set with Staphylococcus aureus [6] and with Salmonella typhimurium [18] was inactive. Further, the minimal inhibitory concentration (MIC) is greater than 32 µM in the data set on Salmonella typhimurium [11]; 8 µM with Escherichia coli [20]; 16 µM in the data set with Salmonella typhimurium [22]; greater than 32 µM with Escherichia coli [12]; 4 µM in the data set with Staphylococcus aureus [23]; greater than 32 µM with Pseudomonas aeruginosa [14]. Further, the MIC with Candida albicans [24] is 16 µM; in the data set with Pseudomonas aeruginosa [25], 32 µM; in the data set on Candida albicans [17], greater than 32 µM; in the data set with Staphylococcus aureus [19], greater than 32 µM. In addition, the outcome in data set [21], in [5], in data set [15] and in data set [8] was Active.

As to H-SQRKLAAKLTSKGGGRLLRPLLQLLKQKLR-OH, the Activity was 1.4 log10CFU with Pseudomonas aeruginosa [26]; 2.8 log10CFU in the data set with Mus musculus [27]; “Non-Toxic” with Erythrocyte; 0.6 log10CFU with Escherichia coli [28]; 3 log10CFU in the data set with Mus musculus [29]; 3.6 log10CFU with Mus musculus [31]. Further, in the data set on Pseudomonas aeruginosa [32], the Activity is 2.7 log10CFU. For the same compound, the MIC in the data set on Salmonella typhimurium [11] was 2 µM; with Escherichia coli [12], 1 µM; in the data set with Pseudomonas aeruginosa [14] it was 2 µM; in the data set on Candida albicans [17], 8 µM; in the data set with Staphylococcus aureus [19] it was 2 µM. The result (in [13]; in the data set on Salmonella typhimurium [30]; in the data set on Escherichia coli [16]; in the data set with Salmonella typhimurium [18]) was inactive. The result in [15] was Active. Also, the survival at 25 mg/kg in the data set on Pseudomonas aeruginosa [9] was found to be 100%.

Take H-VILTGPEAEYFW-OH: the result in the data set on Pseudomonas aeruginosa [7] was inactive.
